Results taken from patent EP1374681A1, “Process for identifying fungicidally active compounds” (Bayer CropScience AG, priority 2002, dated 2004).

What was measured:
Phytophtora infectans = test: Test of fungicidal action (fungal growth inhibition vs. untreated control; ED50 and Wirkungsgrad); type: cell-based
Method: Dazu können z.B. in die Kavitäten von Mikrotiterplatten eine Lösung des zu prüfenden Wirkstoffs pipettiert werden. Nachdem das Lösungsmittel abgedampft war, wird zu jeder Kavität Medium hinzugefügt. Das Medium wird vorher mit einer geeigneten Konzentration von Sporen bzw. Mycel des zu prüfenden Pilzes versetzt. Die resultierenden Konzentrationen des Wirkstoffes betragen z.B. 0,1, 1, 10 und 100 ppm.
Die Platten werden anschließend auf einem Schüttler bei einer Temperatur von 22°C inkubiert, bis in der unbehandelten Kontrolle ein ausreichendes Wachstum feststellbar ist.
Die Auswertung erfolgt dann photometrisch bei einer Wellenlänge von 620 nm. Aus den Messdaten der verschiedenen Konzentrationen kann die Wirkstoffdosis bestimmt werden, die zu einer 50 %igen Hemmung des Pilzwachstums gegenüber der unbehandelten Kontrolle führt (ED50).
Ein anderes Verfahren zur Prüfung der fungiziden Wirkung beruht darauf, die protektive Wirkung der zu testenden Verbindung an einer Pflanze zu testen. Dazu wird die Pflanze mit einer Lösung des zu prüfenden Wirkstoffs besprüht und anschließend mit einer Lösung von Pilzssporen inokuliert und über mehrere Tage hinweg beobachtet. Es kann dann im Vergleich zu einer Pflanze, die nicht vorab mit einer Wirkstofflösung behandelt wurde, festgestellt werden, ob der zu prüfende Wirkstoff den Befall bzw. die Ausbreitung des Pilzes verhindert oder mindert.
Auch hier kann die Wirkstoffkonzentration bestimmt werden, die zu einer 50 %igen Hemmung des Pilzwachstums gegenüber der unbehandelten Kontrolle führt (ED50).
Weiterhin kann als Größe zur Beurteilung einer fungiziden Wirkung der Wirkungsgrad herangezogen werden, wobei 0 % für einen Wirkungsgrad steht, der demjenigen der Kontrolle entspricht, während ein Wirkungsgrad von 100 % bedeutet, daß kein Befall beobachtet wird.
In die Kavitäten von Mikrotiterplatten wurde eine methanolische Lösung des anhand eines erfindungsgemäßen Verfahrens identifizierten Wirkstoffs (Tab. I, Bsp. 2), versetzt mit einem Emulgator, pipettiert. […]

Phosphomannomutase = target: T1, Phosphomannomutase (Saccharomyces cerevisiae, UniProt P07283); test: Phosphomannomutase inhibition test, coupled fluorescence assay (NADPH) in 384-well MTP; type: biochemical; conditions: negative decadic logarithm of the molar IC50 (50 % inhibition of the enzyme)
T1 construct: made in house; host or cells: E. coli BL21 (DE3), plasmid pSec53 (pGEX-4T-1)
T1 sequence (P07283 1-254): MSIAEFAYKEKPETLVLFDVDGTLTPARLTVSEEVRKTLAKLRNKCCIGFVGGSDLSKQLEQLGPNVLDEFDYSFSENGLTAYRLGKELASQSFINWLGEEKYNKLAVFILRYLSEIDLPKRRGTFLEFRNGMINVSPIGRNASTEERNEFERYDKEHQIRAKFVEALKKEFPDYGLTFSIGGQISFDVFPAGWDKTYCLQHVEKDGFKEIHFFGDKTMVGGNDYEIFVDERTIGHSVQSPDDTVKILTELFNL
Method: Die Messung kann auch in für HTS- oder UHTS-Assays gängigeren Formaten erfolgen, z.B. in Mikrotiterplatten, in denen z.B. ein Gesamtvolumen von 5 bis 50 µl pro Ansatz bzw. pro Well vorgelegt wird und die einzelnen Komponenten in einer der vorstehend angegebenen Endkonzentrationen vorliegen (vgl. Beispiel 2). Dabei wird die zu testende, potentiell die Aktivität des Enzyms inhibierende oder aktivierende Verbindung (Kandidatenmolekül) z.B. in einer geeigneten Konzentration im oben angegebenen Testpuffer enthaltend D-Mannose-1-phosphat vorgelegt. Dann wird das erfindungsgemäße Polypeptid in oben genanntem Testpuffer, enthaltend NADP^+, Glucose und die für den gekoppelten Assay notwendigen Hilfsenzyme Phosphoglucose Isomerase und Glucose-6-phosphat Dehydrogenase zugegeben und die Reaktion damit gestartet. Der Ansatz wird dann z.B. bis zu 2 oder 3 Stunden bei einer geeigneten Temperatur inkubiert und die Fluoreszenzzunahme bei einer Anregungswellenlänge von 360 nm und einer Emissionswellenlänge von 460 nm gemessen.
Eine weitere Messung erfolgt in einem entsprechenden Ansatz, jedoch ohne Zugabe eines Kandidatenmoleküls und ohne Zugabe eines erfindungsgemäßen Polypeptids (Negativkontrolle). Eine weitere Messung erfolgt wiederum bei Abwesenheit eines Kandidatenmoleküls, jedoch bei Anwesenheit des erfindungsgemäßen Polypeptids (Positivkontrolle). […]

For `C[n+]1ccc(/C=C/c2ccc(N(c3ccc(/C=C/c4cc[n+](C)cc4)cc3)c3ccc(N(c4ccc(/C=C/c5cc[n+](C)cc5)cc4)c4ccc(/C=C/c5cc[n+](C)cc5)cc4)cc3)cc2)cc1` [Beispiel 2], the ED50 (Phytophtora infectans; Phytophtora infectans, 50 % inhibition of fungal growth vs. untreated control) was 500 ppm, the WG (Phytophtora infectans; Phytophtora infectans, Wirkungsgrad: 0 % = like control, 100 % = no infestation) was 33% and the “fungizide Wirkung” value (Phytophtora infectans; at the application rate given in Tabelle II) was “deutlich fungizide Wirkung”. For the same compound, the pI50 (Phosphomannomutase) was 4,9.
